The results in this text go back to ChEMBL document CHEMBL1201862, “PubChem BioAssay data set” (2004).

Assay [1] addresses T1, Heat shock factor protein 1 (Mus musculus, UniProt P38532).
T1 sequence (P38532 whole entry): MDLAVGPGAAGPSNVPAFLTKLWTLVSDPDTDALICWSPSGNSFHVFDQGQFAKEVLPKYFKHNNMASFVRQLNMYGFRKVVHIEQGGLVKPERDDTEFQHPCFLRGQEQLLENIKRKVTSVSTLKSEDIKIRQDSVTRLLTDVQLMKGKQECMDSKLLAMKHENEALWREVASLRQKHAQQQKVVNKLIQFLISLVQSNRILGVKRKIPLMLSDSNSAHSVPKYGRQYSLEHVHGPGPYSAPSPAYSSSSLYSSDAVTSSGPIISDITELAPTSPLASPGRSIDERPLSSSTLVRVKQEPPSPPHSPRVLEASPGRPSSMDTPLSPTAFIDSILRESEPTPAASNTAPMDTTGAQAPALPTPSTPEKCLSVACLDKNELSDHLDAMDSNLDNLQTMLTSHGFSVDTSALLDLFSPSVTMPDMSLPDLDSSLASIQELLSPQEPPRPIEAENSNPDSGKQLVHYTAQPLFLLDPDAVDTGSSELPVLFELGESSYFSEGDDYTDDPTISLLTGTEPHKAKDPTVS
Put plainly: inhibition of MG132-induced HSE-luciferase signal, confirmation, cell-based, NIH3T3, luminescence, dose retest (AID 2382).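 Further: NIH3T3 fibroblasts with HSF1-driven luciferase reporter stressed by proteasome inhibitor MG132; luminescence from HSF1-driven luciferase expression after 8 hours of MG132 stress.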 The format is functional.

Assay [2] deals with DNA dC->dU-editing enzyme APOBEC-3G (Homo sapiens, UniProt Q9HC16). Put plainly: Dose Response confirmation of small molecule APOBEC3G DNA Deaminase Inhibitors via a fluorescence-based single-stranded DNA deaminase assay. [Related pubchem assays (depositor defined):AID493012, AID493028]. The format is functional.
Chain of DNA dC->dU-editing enzyme APOBEC-3G (Q9HC16 whole entry): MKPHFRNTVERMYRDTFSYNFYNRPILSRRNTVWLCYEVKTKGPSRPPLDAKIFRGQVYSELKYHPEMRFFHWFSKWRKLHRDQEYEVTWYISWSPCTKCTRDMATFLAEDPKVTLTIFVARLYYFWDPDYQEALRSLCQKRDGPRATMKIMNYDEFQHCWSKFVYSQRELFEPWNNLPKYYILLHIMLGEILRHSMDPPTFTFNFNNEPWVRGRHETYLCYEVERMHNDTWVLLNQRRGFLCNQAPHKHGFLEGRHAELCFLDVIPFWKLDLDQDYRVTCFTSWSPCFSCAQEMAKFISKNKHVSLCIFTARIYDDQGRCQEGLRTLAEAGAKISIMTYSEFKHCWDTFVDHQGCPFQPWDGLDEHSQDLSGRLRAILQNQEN
Assay [3] can be described thus: Luminescence Cell-Based Dose Confirmation HTS to Identify Activators of 5'UTR Stem-Loop Driven Alpha-Synuclein mRNA Translation in H4 Neuroglioblastoma Cells. [Related pubchem assays: 1829 (Project Summary), 1814 (Primary HTS)]. Format: functional.
Assay [4] is described as follows: Luminescence Cell-Based Dose Response HTS to Identify Activators of Luciferase Translation or Activity in H4 […] Cells. [Related pubchem assays: 1829 (Project Summary), 1814 (Primary HTS)]. The format is functional.
Another assay has as its system H4. Put plainly: Luminescence Cell-Based Dose Response HTS to Identify Activators of 5'UTR Stem-Loop Driven Prion Protein mRNA Translation in H4 Neuroglioblastoma Cells. [Related pubchem assays: 1829 (Project Summary), 1814 (Primary HTS)]. The following applies: Homo sapiens. The format is functional.
Assay [5] can be described thus: inhibitors of intracellular T. cruzi replication, confirmation, NIH3T3 host cells, beta-gal luminescence (AID 2044).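 Further: intracellular parasites grown in NIH/3T3 mouse fibroblasts as host cells; luminescent beta-galactosidase reporter signal from transgenic T. cruzi replicating inside host cells; inhibitors lower the luminescence signal.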 Format: functional, cell-based.
Assay [6] can be described thus: microbe, parasite or virus in culture. Format: functional. Particulars: Mycobacterium tuberculosis.
A short description of assay [7]: cytotoxicity toward NIH3T3 fibroblasts, dose response, counter-screen, cell-based, ATP luminescence, mouse fibroblasts (AID 2010).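 Further: cells exposed to compound for about 90 hours before reading.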 The format is functional. For orientation: The purpose of a counterscreen is to sort out artefacts and off-target activity.
Assay [8] in a line: cytotoxicity in HEK-293T cells, dose response, cytotoxicity control for TCR NF-kB inhibitor project, luminescence, T-cell screen hits (AID 489026).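 Further: cells exposed to compound about 14 hours before the viability readout.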 Format: functional, cell-based.
A short description of assay [9]: growth suppression of PTEN-null colon cells, dose response, cell-based, HCT116 PTEN knockout (AID 1047).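 Further: HCT116 colon tumor cells with PTEN knocked out; cells exposed to compound for 60 hours before readout; potency for loss of cell viability measured by luminescence.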 Format: functional.
Assay [10] can be described thus: growth suppression of beta-catenin-knockout colon cells, dose response, cell-based, HCT116, human colon tumor (AID 1045).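 Further: HCT116 colon tumor cells with beta catenin knocked out; cells exposed to compound for 60 hours.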 The format is functional.
For a further assay, the target named is Prothrombin (Homo sapiens, UniProt P00734). As to the kind of experiment: Thrombin 1536 HTS Dose Response Confirmation. [Related pubchem assays: 1046 (Thrombin 1536 HTS; hits were confirmed in this assay)]. The format is functional.
A short description of assay [11]: cytotoxicity in HEK-293T cells, dose response, cytotoxicity control for BCR NF-kB inhibitor project, luminescence, B-cell screen hits (AID 489021).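 Further: HEK-293T cells carrying an NF-kB luciferase reporter; cells exposed to compound for about 14 hours before viability readout.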 Format: functional, cell-based.
Assay [12] deals with BJ. As to the kind of experiment: cytotoxicity toward BJ-TERT fibroblasts, dose response, cell-based, RAS-independent, luminescence (AID 1933). Format: functional. The following applies: Homo sapiens.
For assay [13], the system named is BJ. Put plainly: cells. Format: functional, cell-based. Particulars: Homo sapiens.
In assay [14] the test system is BJ. Put plainly: cytotoxicity toward BJ-TERT-LT-ST fibroblasts, dose response, cell-based, RAS-independent, luminescence (AID 1935).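 Further: BJ fibroblasts immortalized with TERT plus LT and ST oncogenes.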 Format: functional. Particulars: Homo sapiens.
Assay [15] can be described thus: cytotoxicity toward DRD oncogenic fibroblasts, dose response, cell-based, non-viral oncogenic, luminescence (AID 1934). Format: functional. Particulars: Homo sapiens.
Assay [16] in a line: Luminescence Cell-Based Dose Retest to Confirm Inhibitors of Cancer Stem Cells. [Related pubchem assays (depositor defined):AID2717, AID2721]. Particulars: Homo sapiens. The format is functional.
A further assay addresses Large T antigen (Simian virus 40, UniProt P03070). Format: functional, Betapolyomavirus macacae.
A further assay addresses Genome polyprotein (dengue virus type 2, UniProt P29990). As to the kind of experiment: Dengue-2 NS5 methyltransferase inhibitors, primary screen, biochemical, confirmation dose response (AID 588689). Format: functional.
In the next assay the target is Nonstructural protein 1 (Influenza A virus, UniProt Q194T2). The format is functional, Influenza A virus (A/California/07/2009(H1N1)).
Chain of Nonstructural protein 1 (Q194T2 whole entry): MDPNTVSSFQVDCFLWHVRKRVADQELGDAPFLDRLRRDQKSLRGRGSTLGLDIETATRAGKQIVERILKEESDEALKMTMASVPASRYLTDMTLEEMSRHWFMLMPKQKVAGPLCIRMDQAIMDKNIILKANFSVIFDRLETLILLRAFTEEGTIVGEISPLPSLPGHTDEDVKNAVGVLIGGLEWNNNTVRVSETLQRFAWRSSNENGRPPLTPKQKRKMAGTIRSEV
In assay [17] the target is T2, Replicative DNA helicase DnaB (Mycobacterium tuberculosis, UniProt P9WMR3).
T2 sequence (P9WMR3 whole entry): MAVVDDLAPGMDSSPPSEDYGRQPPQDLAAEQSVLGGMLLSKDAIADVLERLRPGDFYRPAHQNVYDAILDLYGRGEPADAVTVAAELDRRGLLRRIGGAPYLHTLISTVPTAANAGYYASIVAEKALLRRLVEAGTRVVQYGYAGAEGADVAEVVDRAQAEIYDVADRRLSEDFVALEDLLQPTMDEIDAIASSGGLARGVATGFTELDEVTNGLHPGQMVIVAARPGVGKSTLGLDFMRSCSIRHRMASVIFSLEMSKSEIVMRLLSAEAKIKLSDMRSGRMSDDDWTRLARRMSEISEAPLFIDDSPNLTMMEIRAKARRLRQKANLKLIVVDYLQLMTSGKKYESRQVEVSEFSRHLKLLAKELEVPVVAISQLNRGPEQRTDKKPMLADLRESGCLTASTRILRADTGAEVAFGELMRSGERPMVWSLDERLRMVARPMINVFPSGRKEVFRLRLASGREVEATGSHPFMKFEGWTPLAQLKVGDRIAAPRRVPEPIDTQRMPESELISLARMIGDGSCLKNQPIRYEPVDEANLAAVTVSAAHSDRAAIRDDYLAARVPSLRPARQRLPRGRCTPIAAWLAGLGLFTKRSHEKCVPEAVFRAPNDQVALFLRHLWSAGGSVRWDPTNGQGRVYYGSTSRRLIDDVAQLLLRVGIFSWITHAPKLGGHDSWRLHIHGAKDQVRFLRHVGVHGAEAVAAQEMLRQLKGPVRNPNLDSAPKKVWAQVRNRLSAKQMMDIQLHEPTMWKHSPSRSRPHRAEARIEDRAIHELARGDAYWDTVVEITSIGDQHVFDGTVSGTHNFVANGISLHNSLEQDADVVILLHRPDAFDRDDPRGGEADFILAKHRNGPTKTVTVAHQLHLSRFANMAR
Put plainly: DnaB intein splicing inhibitors, dose response, biochemical, cell-free fluorescence (AID 449749). Format: functional.

Another assay has as its target T3, Protein RecA (Mycobacterium tuberculosis, UniProt P9WHJ3).
T3 sequence (P9WHJ3 whole entry): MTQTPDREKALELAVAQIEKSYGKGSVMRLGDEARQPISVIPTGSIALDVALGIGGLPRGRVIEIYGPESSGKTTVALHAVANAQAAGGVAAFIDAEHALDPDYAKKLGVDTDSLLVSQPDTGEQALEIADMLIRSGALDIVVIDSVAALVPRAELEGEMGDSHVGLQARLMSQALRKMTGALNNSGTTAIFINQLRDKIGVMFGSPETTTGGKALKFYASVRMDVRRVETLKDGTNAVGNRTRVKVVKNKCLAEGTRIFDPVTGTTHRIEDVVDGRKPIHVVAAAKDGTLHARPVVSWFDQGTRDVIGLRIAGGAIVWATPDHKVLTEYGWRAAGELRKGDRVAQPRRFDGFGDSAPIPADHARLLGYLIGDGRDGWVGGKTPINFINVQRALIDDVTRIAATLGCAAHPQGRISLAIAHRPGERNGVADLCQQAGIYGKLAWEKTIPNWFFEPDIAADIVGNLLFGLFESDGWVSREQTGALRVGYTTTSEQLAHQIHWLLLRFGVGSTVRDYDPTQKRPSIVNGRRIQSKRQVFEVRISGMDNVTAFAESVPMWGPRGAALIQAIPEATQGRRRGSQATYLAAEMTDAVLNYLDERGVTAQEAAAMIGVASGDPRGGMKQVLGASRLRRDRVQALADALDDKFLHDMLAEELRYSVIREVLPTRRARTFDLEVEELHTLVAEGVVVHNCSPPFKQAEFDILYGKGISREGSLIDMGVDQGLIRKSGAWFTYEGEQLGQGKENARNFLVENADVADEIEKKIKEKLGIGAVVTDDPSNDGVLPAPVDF
As to the kind of experiment: Fluorescence Cell-Free Homogeneous Dose Retest to Identify Inhibitors of RecA-Intein Splicing Activity. [Related pubchem assays (depositor defined):AID2097, AID2223, AID489010, AID492950]. The format is functional.

As a reminder, the EC50 is the concentration needed to bring the measured effect to its halfway point. As usually defined, the IC50 is the point on the concentration scale where inhibition reaches its midpoint. As a reminder, the AC50 is the concentration giving half of the maximal activity seen.

Calls of active or inactive are those of the source.

Chain of Large T antigen (P03070 whole entry): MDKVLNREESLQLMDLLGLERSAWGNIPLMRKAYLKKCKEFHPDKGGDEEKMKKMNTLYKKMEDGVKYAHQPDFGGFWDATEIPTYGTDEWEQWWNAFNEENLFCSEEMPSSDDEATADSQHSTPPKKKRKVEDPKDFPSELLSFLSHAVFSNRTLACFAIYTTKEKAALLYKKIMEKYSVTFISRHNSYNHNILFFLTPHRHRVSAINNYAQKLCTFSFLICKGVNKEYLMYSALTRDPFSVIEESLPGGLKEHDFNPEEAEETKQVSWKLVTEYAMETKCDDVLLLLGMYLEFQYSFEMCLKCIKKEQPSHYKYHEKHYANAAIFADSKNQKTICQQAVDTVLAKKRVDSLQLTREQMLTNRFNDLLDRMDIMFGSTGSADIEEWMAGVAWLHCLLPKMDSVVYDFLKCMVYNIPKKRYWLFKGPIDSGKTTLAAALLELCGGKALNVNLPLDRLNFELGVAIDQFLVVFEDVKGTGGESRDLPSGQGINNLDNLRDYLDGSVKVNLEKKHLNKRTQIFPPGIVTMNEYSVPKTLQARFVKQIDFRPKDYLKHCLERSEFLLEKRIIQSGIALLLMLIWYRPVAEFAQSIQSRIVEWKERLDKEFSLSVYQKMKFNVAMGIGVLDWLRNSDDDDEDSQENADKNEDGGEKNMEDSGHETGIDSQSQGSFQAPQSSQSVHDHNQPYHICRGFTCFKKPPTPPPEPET
Chain of Genome polyprotein (P29990 2492-3391 limits assumed): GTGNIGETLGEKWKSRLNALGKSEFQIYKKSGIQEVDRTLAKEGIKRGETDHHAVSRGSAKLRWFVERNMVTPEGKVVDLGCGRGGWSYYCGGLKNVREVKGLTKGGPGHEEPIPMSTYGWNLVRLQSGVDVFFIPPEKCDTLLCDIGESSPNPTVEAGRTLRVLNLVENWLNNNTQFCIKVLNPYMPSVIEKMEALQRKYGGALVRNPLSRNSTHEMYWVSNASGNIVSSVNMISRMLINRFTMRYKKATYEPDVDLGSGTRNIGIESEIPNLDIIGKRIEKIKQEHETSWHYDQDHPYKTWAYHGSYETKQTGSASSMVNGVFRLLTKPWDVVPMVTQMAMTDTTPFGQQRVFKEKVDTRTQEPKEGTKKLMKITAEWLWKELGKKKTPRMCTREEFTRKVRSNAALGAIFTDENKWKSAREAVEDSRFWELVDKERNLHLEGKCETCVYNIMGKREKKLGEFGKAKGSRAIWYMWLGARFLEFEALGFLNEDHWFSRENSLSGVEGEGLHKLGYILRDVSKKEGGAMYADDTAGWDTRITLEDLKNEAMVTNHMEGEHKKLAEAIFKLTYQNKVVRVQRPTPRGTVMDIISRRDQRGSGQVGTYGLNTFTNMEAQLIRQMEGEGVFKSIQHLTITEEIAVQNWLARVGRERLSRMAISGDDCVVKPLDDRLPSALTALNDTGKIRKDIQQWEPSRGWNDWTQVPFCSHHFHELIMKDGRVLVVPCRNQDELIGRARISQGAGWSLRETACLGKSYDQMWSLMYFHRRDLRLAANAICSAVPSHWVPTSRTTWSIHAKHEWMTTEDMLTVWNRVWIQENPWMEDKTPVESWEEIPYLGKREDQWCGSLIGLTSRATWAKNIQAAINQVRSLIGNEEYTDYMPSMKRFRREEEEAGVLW

As for `CCCCC(=O)Nc1sc(C(=O)N(CC)CC)c(C)c1C(=O)OC`, in assay [1], the EC50 is recorded as > 195 µM (not active). The IC50 in assay [2] is 49.6 µM (active).

As to `COc1ccc(NCc2nc3ccccc3n2CCOc2ccccc2)cc1`, the EC50 in assay [3] was 7.26 µM (active); in assay [4], 53.4 µM (active); with H4 it was 79.8 µM (active); in assay [5] it was 2.36 µM (active); in assay [7], > 60 µM (not active). Besides, the CC50 in [6] is > 40 µM (active).

As for `CCOC(=O)CSC1=C(C#N)C(c2ccc(C)s2)CC(=O)N1` (stereo not drawn), in [8], the IC50 was > 80 µM (inactive).

Take `CCOc1cc(C(=O)N/N=C/C(Br)=C/c2ccccc2)cc(OCC)c1OCC`: the figures for the EC50 in [9] and in [10] were 1.39 µM (active) and 1.34 µM (active), respectively. Besides, the IC50 in assay [8] was > 80 µM (inactive).

`C/C(=C/C(=O)N1CCN(C)CC1)C(=O)O`: in assay [1], the EC50 was 36.8 µM (active). The IC50 at Prothrombin is on record as > 50 µM (not active).

`O=C(CCCN1C(=O)/C(=C/c2ccccc2Cl)SC1=S)Nc1cccnc1`: the IC50 in assay [11] is > 80 µM (inactive).

As for `C=C(C)COc1ccc(-c2n[nH]cc2-c2ccc(OC)c(OC)c2)c(O)c1`, the EC50 with BJ [12] was 8.31 µM (active); in the assay on BJ [13], 1.84 µM (active); in the assay with BJ [14], 2.48 µM (active); in [15], 2.4 µM (active). Moreover, the AC50 in [16] was 0.882 µM (active). Besides, the IC50 in [8] is 34.3 µM (inactive).

On to `O=C(Nc1ccc(O)cc1)/C(=C\c1ccncc1)NC(=O)c1ccccc1`, for which the IC50 at Large T antigen was 27.7 µM (active).

On to `CC1=C(C#N)c2nc(N)c(C#N)c(C)c2/C1=C\c1ccc(OCC(=O)O)c(Cl)c1`, for which the EC50 in [1] is > 195 µM (not active). Moreover, the IC50 at Large T antigen was 44.3 µM (active); at Genome polyprotein, 35.9 µM (active).

As for `COc1ccc(-c2ccc(F)cc2)cc1[C@H]1[C@H]2C=CC[C@@H](C)[C@@H]2C(=O)N1Cc1ccccc1`, the IC50 in assay [11] is > 80 µM (inactive).

`COc1cc(C(=O)Nc2cc(C)c(OCC(=O)N3CCOCC3)c(C)c2)cc(OC)c1OC`: the IC50 in [11] was > 80 µM (inactive).

Take `CCN(CC)S(=O)(=O)c1ccc2c(c1)c(=O)c(C(=O)NCc1cccs1)cn2C`: on Prothrombin, the IC50 is 0.0331 µM (active).

Turning to `CC1=NN(Cc2ccccc2)C(=O)/C1=C/c1ccc(N(C)C)cc1`, the IC50 at Nonstructural protein 1 was 50.9 µM (active). The AC50 in [17] was 4.15 µM (active). Moreover, the EC50 on Protein RecA was 1.22 µM (active).

As to `Nn1c(SC/C=C/c2ccccc2)nnc1-c1ccccn1`, the IC50 at Nonstructural protein 1 is 24 µM (active).

With `Cc1ccc(N2C(S)=NC3c4ccccc4OC2(C)C3C(=O)N(C)C)cc1` (stereo not drawn), the IC50 at Prothrombin was > 50 µM (inconclusive).

`CCN(CC)Cc1nc(O)c2c(n1)-c1ccccc1CC2(CC)CC`: the CC50 in assay [6] is > 40 µM (active).

For the compound `CCC1C(c2ccccc2)N(C)C(c2ccccc2)CC1(O)c1ccccc1` (stereo not drawn), the EC50 in assay [5] is 2.31 µM (active); in assay [7], > 60 µM (not active). Moreover, in [6], the CC50 was > 40 µM (active).

Take `COc1ccc(CNc2ccc(N3CCOCC3)cc2)cc1`: on Large T antigen, the IC50 is 16.8 µM (active).

For the compound `CN1CCN(C(=O)c2ccccc2N(Cc2ccccc2)S(=O)(=O)c2ccccc2)CC1`, the IC50 in [11] is > 80 µM (inactive).

Consider `COc1ccc(/C=N\NC(=O)c2ccccc2F)cc1COc1ccc(F)cc1F`, for which the IC50 in [8] was > 80 µM (inactive).

Regarding `Cc1ccc(S(=O)(=O)N2CCN(C(=O)c3ccc(N4CCCC4)c([N+](=O)[O-])c3)CC2)cc1`, at Nonstructural protein 1, the IC50 was > 100 µM (active).

As for `CSCCC(NC(=O)c1cccc(C)c1)C(=O)OCC(=O)NC(=O)c1cccn1C` (stereo not drawn), on Prothrombin, the IC50 was 39 µM (active).

As to `COc1ccc(OCC(=O)N2CCN(Cc3ccc(SC)cc3)CC2)cc1`, at Prothrombin, the IC50 is given as > 50 µM (not active).
